Common to all, as to type: biochemical
The target in assay [1] is T1, ICD (Aeromonas hydrophila, UniProt A0KI74).
T1 construct: recombinant, pET-21b vector, E. coli BL21(DE3), Ni-NTA purified; non-acetylated form
T1 sequence (A0KI74 1-417): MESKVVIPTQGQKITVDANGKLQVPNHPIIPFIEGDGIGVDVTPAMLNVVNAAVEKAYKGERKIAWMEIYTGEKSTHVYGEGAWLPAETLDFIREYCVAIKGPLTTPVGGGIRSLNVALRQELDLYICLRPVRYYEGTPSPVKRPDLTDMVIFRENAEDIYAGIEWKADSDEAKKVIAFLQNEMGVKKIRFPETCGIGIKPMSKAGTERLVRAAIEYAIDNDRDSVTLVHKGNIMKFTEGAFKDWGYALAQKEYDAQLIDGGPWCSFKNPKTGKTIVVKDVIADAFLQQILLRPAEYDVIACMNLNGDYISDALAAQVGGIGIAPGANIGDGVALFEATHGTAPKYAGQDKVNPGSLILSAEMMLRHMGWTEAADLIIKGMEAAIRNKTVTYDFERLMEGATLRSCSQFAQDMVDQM
Put plainly: NADPH formation, absorbance at […] nm. As to conditions: 0.5 mM NADP, 1.5 mM isocitrate, 3 mM MgCl2, 100 mM Tris-HCl pH 8.0, 10% glycerol.

Assay [2] addresses T2, AhCobB (Aeromonas hydrophila, UniProt A0KKN9).
T2 construct: gene cobB; recombinant, pET-21b/32a vector, E. coli BL21(DE3), Ni-NTA purified
T2 sequence (A0KKN9 1-257): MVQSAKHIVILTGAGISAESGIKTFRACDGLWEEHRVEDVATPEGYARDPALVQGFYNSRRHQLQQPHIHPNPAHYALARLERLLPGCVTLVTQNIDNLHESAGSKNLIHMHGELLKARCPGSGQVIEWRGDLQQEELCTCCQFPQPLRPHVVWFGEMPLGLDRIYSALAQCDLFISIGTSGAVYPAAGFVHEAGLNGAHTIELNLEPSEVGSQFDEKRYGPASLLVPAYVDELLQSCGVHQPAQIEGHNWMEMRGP
The assay is described as follows: deacetylation of Kac-BSA, anti-Kac western blot. As to conditions: 0.25 mM NAD+ as co-substrate; 150 mM Tris-HCl pH 8.0, 10% glycerol, 37 °C, 3 h. (Immunoblotting shows a protein as a band on a membrane.)

In assay [3] the target is T2, AhCobB. Put plainly: deacetylation of Kac-BSA, anti-Kac western blot. As to conditions: 0.5 mM NAM; 150 mM Tris-HCl pH 8.0, 10% glycerol, 37 °C, 3 h; inhibitor.

For the molecule `NC(=O)c1ccc[n+]([C@@H]2O[C@H](COP(=O)(O)OP(=O)(O)OC[C@H]3O[C@@H](n4cnc5c(N)ncnc54)[C@H](OP(=O)(O)O)[C@@H]3O)[C@@H](O)[C@H]2O)c1` [NADP^+], the “NADPH formation, absorbance at 340 nm” value in assay [1] is reported as “The enzymatic activity of ICD was detected by measuring the amount of NADPH generated”.
For `NC(=O)c1ccc[n+]([C@@H]2O[C@H](COP(=O)(O)OP(=O)(O)OC[C@H]3O[C@@H](n4cnc5c(N)ncnc54)[C@H](O)[C@@H]3O)[C@@H](O)[C@H]2O)c1` [NAD^+], in assay [2], the “deacetylation of Kac-BSA, anti-Kac western blot” value was “AhCobB and AhAcuC significantly deacetylated Kac-BSA in the presence of NAD^+ or Zn2 ^+ buffer”.
On to `NC(=O)c1cccnc1` [nicotinamide], for which, in assay [3], the inhibition entry was “the KDAC activity of AhCobB was inhibited when the sirtuin inhibitor nicotinamide (NAM) was added”.

The values above are taken from article PMC11856932, “Aeromonas hydrophila CobQ is a new type of NAD^+- and Zn^2+-independent protein lysine deacetylase” (eLife, 2025).
